Assay results published in patent US5736528A, “N^6 -(epoxynorborn-2-yl) adenosines as A1 adenosine receptor agonists” (priority 1995, dated 1998).

Key:
A2 adenosine receptor = test: Hypotensive (A2) effect in whole animals; format: in vivo
A1 adenosine receptor = A1 adenosine receptor (Cavia porcellus, UniProt P47745); test: Slowing of A-V conduction (A1 effect) versus coronary vasodilation (A2 effect); design: slowing of A--V (A1 effect) conduction; from tissue
A1 adenosine receptor, sequence (P47745 whole entry): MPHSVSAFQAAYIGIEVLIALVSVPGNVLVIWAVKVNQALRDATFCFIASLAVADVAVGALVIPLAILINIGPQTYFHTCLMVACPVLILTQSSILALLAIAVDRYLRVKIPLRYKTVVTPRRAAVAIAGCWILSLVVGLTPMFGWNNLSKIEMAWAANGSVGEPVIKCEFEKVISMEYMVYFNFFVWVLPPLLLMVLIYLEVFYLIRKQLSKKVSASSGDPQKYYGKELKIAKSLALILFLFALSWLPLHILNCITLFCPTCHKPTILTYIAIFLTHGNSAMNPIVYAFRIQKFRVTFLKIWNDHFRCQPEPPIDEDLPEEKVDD

## OC[C@H]1O[C@@H](n2cnc3c(N[C@H]4C[C@@H]5C[C@H]4[C@H]4O[C@@H]54)ncnc32)[C@H](O)[C@@H]1O [N^6-(2S-endo-5,6-epoxynorborn-2-yl) adenosine]
A2 adenosine receptor
  hypotensive (A2) effect: no discernable hypotensive (A2) effect
A1 adenosine receptor
  potency for slowing of A-V conduction (A1) over coronary vasodilation (A2): more than 100 fold
